The source of these data is PubChem BioAssay (NCI).

Among the test systems are ACHN renal; KM12 colon; OVCAR-3 ovarian; SF-539 CNS; SK-OV-3 ovarian; UO-31 renal; SF-268 CNS; CAKI-1 renal.
Holding throughout (experiment): NCI-60 cell line screen, 48 h

Structures are written as SMILES.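 1) Cells in 96-well plates. 2) Compound, 48 h, 5 concentrations. 3) Linear interpolation between surrounding doses. 4) Unreached endpoint = highest concentration. GI50 is the concentration that inhibits growth by half. TGI: total growth inhibition.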

Consider `COc1nc2c(OC)cccc2c(OC)c1C=O`, for which the TGI with ACHN renal, with KM12 colon, in the assay on OVCAR-3 ovarian, in the assay on SF-539 CNS, in the assay with SK-OV-3 ovarian and in the assay on UO-31 renal was > 100 µM each time.
On to `O=C1NC(=O)C(C(=O)C(=O)Nc2ccc(Br)cc2)C(=O)N1`, for which the TGI with ACHN renal, in the assay with OVCAR-3 ovarian, in the assay on SF-268 CNS, with SF-539 CNS, in the assay on SK-OV-3 ovarian and in the assay with UO-31 renal was > 100 µM throughout.
With `Oc1cccc2c1NC1=C(CCC/C1=C\c1ccccc1)C2`, the TGI with ACHN renal, in the assay on KM12 colon, in the assay with OVCAR-3 ovarian, with SF-268 CNS, in the assay with SF-539 CNS and in the assay on SK-OV-3 ovarian was > 100 µM in each case. Also, in the assay on UO-31 renal, the TGI was > 100 µM.
Consider `O=S(=O)([O-])[O-].[OH3+].[OH3+].[OH3+].[Ru+2].c1ccccc1`, for which the GI50 in the assay with ACHN renal, with KM12 colon, in the assay with OVCAR-3 ovarian, in the assay with SF-268 CNS, with SF-539 CNS and in the assay on SK-OV-3 ovarian was > 100 µM throughout. The GI50 with UO-31 renal was > 100 µM. In addition, the TGI in the assay on ACHN renal, with KM12 colon, in the assay on OVCAR-3 ovarian, in the assay on SF-268 CNS, in the assay with SF-539 CNS and in the assay on SK-OV-3 ovarian was > 100 µM throughout. Moreover, the TGI with UO-31 renal is > 100 µM.
In the case of `CC(Cn1c2c3ccccc3ccc2c2oc(=O)c3ccccc3c21)N(C)C` (configuration not stated), the TGI with ACHN renal, in the assay with CAKI-1 renal, in the assay with KM12 colon, in the assay with OVCAR-3 ovarian, in the assay on SF-268 CNS and with SF-539 CNS was > 100 µM each time. The TGI in the assay on UO-31 renal was > 100 µM.
`O=C1C=CC(=O)c2c1ccc1c3ccccc3n(-c3ccccn3)c21`: the TGI with ACHN renal was 35.6 µM; in the assay with KM12 colon, > 100 µM; with OVCAR-3 ovarian, 63.8 µM; in the assay with SF-268 CNS, > 100 µM; in the assay on SF-539 CNS, 68.2 µM; with SK-OV-3 ovarian, > 100 µM. In the assay with UO-31 renal, this compound returned a TGI of 35.8 µM.
For `CCCc1c2c([nH]c(=O)c1C)C(=O)c1[nH]c(=O)c(C)c(CCC)c1C2=O`, the TGI in the assay with ACHN renal is 47.6 µM; in the assay on OVCAR-3 ovarian, 5.97 µM; with SF-268 CNS it was 87.4 µM; in the assay with SF-539 CNS, > 100 µM; in the assay with UO-31 renal it was > 100 µM.
For the compound `CN(C)c1ccc(-c2cc(=O)c3ccccc3[nH]2)cc1`, the TGI with ACHN renal, in the assay on KM12 colon, with OVCAR-3 ovarian, in the assay with SF-268 CNS, in the assay on SF-539 CNS and in the assay on UO-31 renal was > 100 µM in each case.
With `CC[C@@H]1C[C@@H]2CN3CCc4c([nH]c5ccc(OC)cc45)C(COC(=O)c4ccc(OC)c(OC)c4)(C2)C13`, the TGI with ACHN renal is > 100 µM; in the assay with CAKI-1 renal, > 100 µM; in the assay on KM12 colon, > 100 µM; with OVCAR-3 ovarian it was > 100 µM; in the assay on SF-268 CNS it was > 100 µM; in the assay on SF-539 CNS it was 55 µM. The compound further gave a TGI in the assay with UO-31 renal of 98.8 µM.
As for `CCCCCCCCCCCCCS(=O)(=O)O`, the TGI in the assay on ACHN renal, in the assay with KM12 colon, in the assay on OVCAR-3 ovarian, in the assay on SF-268 CNS, in the assay on SF-539 CNS and in the assay with UO-31 renal was > 100 µM throughout.
With `C/C(=N\NC(=S)N1CCCCCC1)c1nccnc1C`, the TGI was 3.24 µM with ACHN renal; > 100 µM with CAKI-1 renal; > 100 µM in the assay with KM12 colon; > 100 µM with SF-268 CNS; 1.65 µM in the assay on SF-539 CNS.
For the compound `Cn1ncc(=S)[nH]c1=S`, the TGI in the assay with ACHN renal, in the assay with OVCAR-3 ovarian, in the assay on SF-268 CNS, in the assay with SF-539 CNS, in the assay on SK-OV-3 ovarian and with UO-31 renal was > 100 µM throughout.
`CC(C)C(C(=O)O)N(CC1(O)OCC(O)C(O)C1O)N=O` (configuration not stated): the TGI with ACHN renal, in the assay on KM12 colon, with OVCAR-3 ovarian, with SF-539 CNS, in the assay on SK-OV-3 ovarian and in the assay with UO-31 renal was > 100 µM each time.
For `O=C(Nc1ccc(Cl)c(C(F)(F)F)c1)C(=O)C(C(=O)/C=C/c1ccccc1)C1OC(=O)c2ccccc21` (configuration not stated), the TGI in the assay on ACHN renal, in the assay on CAKI-1 renal, with KM12 colon, with OVCAR-3 ovarian, in the assay on SF-268 CNS and in the assay with SK-OV-3 ovarian was > 100 µM each time. The TGI in the assay with UO-31 renal was > 100 µM.
For `CCNc1nnc(CSc2nc(-c3ccccc3)c(-c3ccccc3)[nH]2)s1`, the TGI turned out to be 74.6 µM with ACHN renal; 23.9 µM in the assay with KM12 colon; 37.1 µM in the assay on OVCAR-3 ovarian; 39.3 µM in the assay with SF-268 CNS; 33.2 µM in the assay with SF-539 CNS; 41.7 µM with SK-OV-3 ovarian. Also, the TGI in the assay on UO-31 renal turned out to be 29.5 µM.
